What was measured:
HeLa cells = assay: Cellular uptake of the MSF in 2D cell culture, evaluated by CLSM (Example 1), non-affected control cells; assay type: cell-based, human; settings: 20 µM in DMF, 5 hrs
Method: (§1) Two-dimensional cell cultures were treated with the fluorescent compound (I-1) as the MSF, represented by the following formula: [drawing 22]
(§2) Diverse cell lines as well as primary skin cells such as U2OS, SHSY, A459, H4, Hek293, HepG2, HCT116, U251, MCF-7, Ratfib, HUVEC, Fibroblasts, and HeLa were treated with the MSF at a concentration of 20 µM in DMF (dimethylformamide) for 5 hrs and subsequently evaluated by means of CLSM (confocal laser scanning microscopy).
(§3) In addition, murine (MEB4) as well as human (SK-Mel28) malignant melanoma cells were treated with the MSF under the same conditions.
(§4) The experimental procedure was similar to that of Example 2, as described below.
(§5) The aforementioned cells were seeded in an ibidi® µ-slide 8 well in a density of 2x10^5/mL and cultured for two days to confluency, before being treated with the fluorescent compounds in a concentration of 20 µM in DMF (dimethylformamide). After an incubation time of 5 hrs, the adherent cell layers were washed three times with PBS (phosphate buffered saline) and the nuclei were stained with Hoechst 33342 (Invitrogen, 0.5 µg/mL, 20 min). During the microscopic studies (Leica TCS-SP-5, inverted microscope), the fluorescent compounds were excited using an Ar-laser at 488 nm. Excitation of the Hoechst dye was accomplished with an UV-Laser at 351 and 364 nm. […]

[1] = tested on: human melanoma cells SK-Mel28; assay: Cellular uptake of fluorescent compounds by CLSM with fluorescence quantification (Example 2, Fig. 3); assay type: cell-based; settings: 20 µM in DMF, 5 hrs; for fluorescence signal: excitation 488 nm, background subtracted; for difference in the uptake between SK-Mel28 and HeLa cells: SK-Mel28 versus HeLa (negative control)
Method: The cellular uptake of the fluorescent compounds according to the present invention was studied by treatment of human melanoma cells SK-Mel28 and HeLa cells (human cervix carcinoma cell line as a negative control, common model cell line) and their investigation via CLSM (confocal laser scanning microscopy).
The aforementioned cells were seeded in an ibidi® µ-slide 8 well in a density of 2x10^5/mL and cultured for two days to confluency, before being treated with the fluorescent compounds in a concentration of 20 µM in DMF (dimethylformamide). After an incubation time of 5 hrs, the adherent cell layers were washed three times with PBS (phosphate buffered saline) and the nuclei were stained with Hoechst 33342 (Invitrogen, 0.5 µg/mL, 20 min). During the microscopic studies (Leica TCS-SP-5, inverted microscope), the fluorescent compounds were excited using an Ar-laser at 488 nm. Excitation of the Hoechst dye was accomplished with an UV-Laser at 351 and 364 nm. Due to the overlap of the emission spectra of both dyes, a sequential mode was chosen for recording the cell images.
The resulting cell images were analyzed in terms of fluorescence quantification at 488 nm excitation using the software imaged 1.50i (Wayne Rasband, National Institutes of Health, USA).
From each cell image, five cells were selected as regions of interest and the related fluorescence signals were quantified (mean value and standard deviation). Additionally, three cell-free regions were selected in each cell image as background and the resulting background signal from these regions was subtracted from the cell signal.

MEB4 cells = assay: Cellular uptake of the MSF in 2D cell culture, evaluated by CLSM (Example 1); assay type: cell-based, murine; settings: 20 µM in DMF, 5 hrs
Method: as §1, §2, §3, §4, §5

SMILES | fluorescence originating from the MSF in CLSM images (HeLa cells; HeLa cells, Fig. 1) | uptake by the cells (HeLa cells; HeLa non-affected cells) | fluorescence signal [1] | difference in the uptake between SK-Mel28 and HeLa cells [1] | fluorescence generated by the MSF in CLSM images (MEB4 cells; MEB4 cells, Fig. 2) | uptake by the cells (MEB4 cells; MEB4 malignant melanoma cells)
O=C(c1ccccc1-c1c2ccc(=O)cc-2oc2cc(O)ccc12)N1CCN(C(=O)C2(F)C#CCCCCC2)CC1 (stereo not shown) [I-1] | no fluorescence apparent | not significantly been taken up | high fluorescence signal | large difference in the uptake | can be recognized throughout the cytoplasm | effectively been taken up
O=C(c1ccc(OC2C#CCCCCC2)cc1)N1CCN(C(=O)c2ccccc2-c2c3ccc(=O)cc-3oc3cc(O)ccc23)CC1 (stereo not shown) [I-14] |  |  | slightly weaker fluorescence signals | significant differences in the uptake |  | 
O=C(OCC1CSCC#CCO1)N1CCN(C(=O)c2ccccc2-c2c3ccc(=O)cc-3oc3cc(O)ccc23)CC1 (stereo not shown) [I-17] |  |  | slightly weaker fluorescence signals | significant differences in the uptake |  | 
O=C(c1ccccc1-c1c2ccc(=O)cc-2oc2cc(O)ccc12)N1CCN(C(=O)C23CC4CC(CC(C4)C2)C3)CC1 [I-18] |  |  | slightly weaker fluorescence signals | significant differences in the uptake |  | 
O=C(c1ccc2[nH]ccc2c1)N1CCN(C(=O)c2ccccc2-c2c3ccc(=O)cc-3oc3cc(O)ccc23)CC1 [I-20] |  |  | slightly weaker fluorescence signals | significant differences in the uptake |  | 
O=C(NCCCCNC(=O)C1(F)C#CCCCCC1)c1ccc(-c2c3ccc(=O)cc-3oc3cc(O)ccc23)c(C(=O)O)c1 (stereo not shown) [I-25] |  |  | slightly weaker fluorescence signals | significant differences in the uptake |  | 

From patent publication EP3373009A1, “FLUORESCENT COMPOUNDS FOR THE DETECTION OF MALIGNANT MELANOMA” (Karlsruher Institut für Technologie, priority 2017, dated 2018)
